# Entries after “also recorded” stand apart in the source; their conditions may differ. Counter-ions that a name gives are not always drawn. Like-named read-outs stand apart in the source and are kept apart here.
# Key:
# [1] = target: T1, Adenosine receptor A1 (Homo sapiens, UniProt P30542); experiment: radioligand competition binding, [3H]DPCPX
# T1 construct: Eurofins
# [2] = target: T2, M4 (muscarinic receptor) (Homo sapiens, UniProt P08173); experiment: radioligand competition binding, [3H]4-DAMP
# T2 construct: Eurofins
# T2 sequence (P08173 1-479): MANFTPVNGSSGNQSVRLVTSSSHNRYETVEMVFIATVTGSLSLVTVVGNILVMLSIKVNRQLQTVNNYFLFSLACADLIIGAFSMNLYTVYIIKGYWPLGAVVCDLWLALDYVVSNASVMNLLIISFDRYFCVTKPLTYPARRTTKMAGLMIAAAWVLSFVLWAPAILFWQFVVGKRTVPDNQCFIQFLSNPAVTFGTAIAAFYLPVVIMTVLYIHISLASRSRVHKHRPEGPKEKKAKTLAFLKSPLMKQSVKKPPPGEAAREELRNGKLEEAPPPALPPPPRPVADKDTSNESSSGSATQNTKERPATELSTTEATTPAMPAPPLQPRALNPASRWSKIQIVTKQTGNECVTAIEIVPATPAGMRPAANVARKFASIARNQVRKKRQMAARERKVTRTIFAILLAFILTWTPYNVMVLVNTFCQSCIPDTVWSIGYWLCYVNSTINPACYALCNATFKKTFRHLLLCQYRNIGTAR
# [3] = target: T3, H3 (histaminergic receptor) (Homo sapiens, UniProt Q9Y5N1); experiment: radioligand competition binding, [3H]N-α-methyl-histamine
# T3 construct: Eurofins
# [4] = target: T4, D5 (dopaminergic receptor) (Homo sapiens, UniProt P21918); experiment: radioligand competition binding, [3H]SCH 23390; conditions: read-out: % inhibition of the specific radioligand binding
# T4 construct: Eurofins
# [5] = target: T5, Glucocorticoid receptor (Homo sapiens, UniProt P04150); experiment: radioligand competition binding, [3H]Dexamethasone
# T5 construct: Eurofins
# [6] = target: T6, D1 (dopaminergic receptor) (Homo sapiens, UniProt P21728); experiment: radioligand competition binding, [3H]SCH 23390; conditions: read-out: % inhibition of the specific radioligand binding
# T6 construct: Eurofins
# [7] = target: T7, H2 (histaminergic receptor) (Homo sapiens, UniProt P25021); experiment: radioligand competition binding, [125I]APT
# T7 construct: Eurofins
# [8] = target: T8, Nicotinic acetylcholine receptor α3β4 (Homo sapiens, UniProt P30926+P32297); experiment: radioligand competition binding, [125I]Epibatidine
# T8 construct: Eurofins
# [9] = target: human 5-HT2CR (Homo sapiens, UniProt P28335); experiment: Ca2+/Fluo-4 assay, agonist mode, stable 5-HT2CR-HEK293 cells
# [10] = target: T9, Neuropeptide Y receptor Y2 (Homo sapiens, UniProt P49146); experiment: radioligand competition binding, [125I]Peptide YY
# T9 construct: Eurofins
# [11] = tested on: MDR1; experiment: MDR1-MDCK II permeability assay; format: in vitro ADME; conditions: dog, MDCK-MDR1, pH 7.4, Table S6
# [12] = tested on: MDR1 (P-gp); experiment: MDR1-MDCK II permeability assay; format: in vitro ADME; conditions: dog, MDCK-MDR1, pH 7.4
# [13] = target: T10, 5-HT3 (Homo sapiens, UniProt P46098); experiment: radioligand competition binding, [3H]BRL 43694; conditions: read-out: % inhibition of the specific radioligand binding
# T10 construct: Eurofins
# [14] = tested on: Purinergic receptor P2Y; experiment: radioligand competition binding, [35S]dATPαS; set-up: species or system rat
# [15] = target: Ca2+ Channel L-Type, (Dihydropyridine) (Rattus norvegicus, UniProt P22002); experiment: biochemical; conditions: read-out: % inhibition of the specific radioligand binding
# [16] = target: T11, 5-HT1B (Homo sapiens, UniProt P28222); experiment: radioligand competition binding, [3H]GR125743
# T11 construct: Eurofins
# [17] = target: T12, β1 (adrenergic receptor) (Homo sapiens, UniProt P08588); experiment: radioligand competition binding, [3H](-)CGP 12177
# T12 construct: Eurofins
# [18] = target: T13, Leukotriene receptor CysLT1 (Homo sapiens, UniProt Q9Y271); experiment: radioligand competition binding, [125I]LTD4
# T13 construct: Eurofins
# [19] = target: T14, Prostanoid receptor EP4 (Homo sapiens, UniProt P35408); experiment: radioligand competition binding, [3H]Prostaglandin E2
# T14 construct: Eurofins
# [20] = LogP / log D determination, 1-octanol/phosphate buffer; format: physicochemical
# Method: LogP Log D log D log D log D log D log D log D
# Phosphate buffer (PB) with the pH ranging from 1.8 to 12.0 and Octanol saturated with water was used. 2 μL of 10 mM DMSO stock solution of test and control compounds was aliquoted into tubes in duplicate. Added 149 μL of PB (pH 1.8, 2.5, 4.5, 7.4, 9.5,11.0 and 12.0)-Saturated […]
# was added, respectively. Each of the tubes was vigorously mixed for 2 minutes and then shook for 1 hour at a speed of 800 rpm at room temperature. Following centrifugation at 4000 rpm for 5 minutes at room temperature, appropriate volume of buffer layer samples and 1-octanol layer samples was aliquoted. These samples were diluted and detected by using LC -MS/MS method without running a calibration curve.
# The log D values were calculated with the following equation:
# (also on this page, place not known: temperature , 1 -octanol Log Doctanol/buffer = log( Mean Octanol Layer Peak Area Ratio ∗ Octanol Layer Dilution Factor Mean Buffer Layer Peak Area Ratio ∗ Buffer Layer Dilution Factor) […]
# (1 picture or pasted object on this page, not shown here)
# [21] = estimated from the % inhibition data
# [22] = read-out: % inhibition of the specific radioligand binding
# T11 sequence (P28222 whole entry): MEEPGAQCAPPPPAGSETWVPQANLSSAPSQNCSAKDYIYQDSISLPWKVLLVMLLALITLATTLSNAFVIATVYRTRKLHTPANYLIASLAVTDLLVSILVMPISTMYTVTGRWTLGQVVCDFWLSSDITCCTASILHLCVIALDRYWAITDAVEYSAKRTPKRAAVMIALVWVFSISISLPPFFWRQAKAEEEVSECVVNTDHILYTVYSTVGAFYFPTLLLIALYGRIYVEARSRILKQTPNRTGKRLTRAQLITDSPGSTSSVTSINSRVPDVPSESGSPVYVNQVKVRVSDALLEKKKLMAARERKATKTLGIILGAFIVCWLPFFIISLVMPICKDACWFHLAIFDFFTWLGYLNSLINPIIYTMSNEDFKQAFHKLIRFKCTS
# Chain of human 5-HT2CR (P28335 33-458): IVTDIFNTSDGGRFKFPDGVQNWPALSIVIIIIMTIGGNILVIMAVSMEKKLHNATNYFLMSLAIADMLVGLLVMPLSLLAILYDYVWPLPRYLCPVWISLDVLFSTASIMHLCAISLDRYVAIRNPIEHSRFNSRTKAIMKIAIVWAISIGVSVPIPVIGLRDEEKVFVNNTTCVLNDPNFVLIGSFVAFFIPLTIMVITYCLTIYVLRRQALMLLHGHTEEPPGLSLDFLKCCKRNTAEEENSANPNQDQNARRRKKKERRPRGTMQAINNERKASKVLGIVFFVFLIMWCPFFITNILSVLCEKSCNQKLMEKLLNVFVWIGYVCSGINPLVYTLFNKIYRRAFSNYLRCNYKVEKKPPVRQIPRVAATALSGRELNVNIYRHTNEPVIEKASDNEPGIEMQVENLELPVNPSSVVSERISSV
# T12 sequence (P08588 whole entry): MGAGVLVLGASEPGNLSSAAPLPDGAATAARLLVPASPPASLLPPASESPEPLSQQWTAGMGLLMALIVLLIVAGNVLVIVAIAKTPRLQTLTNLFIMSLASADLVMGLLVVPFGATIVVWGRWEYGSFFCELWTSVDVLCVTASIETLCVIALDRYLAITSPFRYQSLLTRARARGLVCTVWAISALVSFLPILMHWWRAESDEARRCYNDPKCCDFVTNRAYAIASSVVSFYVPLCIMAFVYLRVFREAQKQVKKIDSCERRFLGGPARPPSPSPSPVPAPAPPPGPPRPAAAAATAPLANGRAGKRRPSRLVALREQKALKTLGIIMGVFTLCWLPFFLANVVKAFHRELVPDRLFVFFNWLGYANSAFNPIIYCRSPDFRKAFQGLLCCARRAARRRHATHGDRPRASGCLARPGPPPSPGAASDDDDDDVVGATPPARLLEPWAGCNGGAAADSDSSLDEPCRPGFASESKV
# T13 sequence (Q9Y271 whole entry): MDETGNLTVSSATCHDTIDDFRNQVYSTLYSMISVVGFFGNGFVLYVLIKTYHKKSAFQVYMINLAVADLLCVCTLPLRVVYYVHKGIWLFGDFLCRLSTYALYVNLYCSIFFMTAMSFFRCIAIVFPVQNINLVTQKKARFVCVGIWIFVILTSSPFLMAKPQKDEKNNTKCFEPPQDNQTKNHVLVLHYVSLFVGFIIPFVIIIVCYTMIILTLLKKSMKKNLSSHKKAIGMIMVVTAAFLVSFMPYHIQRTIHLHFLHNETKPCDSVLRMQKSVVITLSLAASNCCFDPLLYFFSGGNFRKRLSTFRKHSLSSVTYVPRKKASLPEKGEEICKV
# T8 sequence (P32297 32-505): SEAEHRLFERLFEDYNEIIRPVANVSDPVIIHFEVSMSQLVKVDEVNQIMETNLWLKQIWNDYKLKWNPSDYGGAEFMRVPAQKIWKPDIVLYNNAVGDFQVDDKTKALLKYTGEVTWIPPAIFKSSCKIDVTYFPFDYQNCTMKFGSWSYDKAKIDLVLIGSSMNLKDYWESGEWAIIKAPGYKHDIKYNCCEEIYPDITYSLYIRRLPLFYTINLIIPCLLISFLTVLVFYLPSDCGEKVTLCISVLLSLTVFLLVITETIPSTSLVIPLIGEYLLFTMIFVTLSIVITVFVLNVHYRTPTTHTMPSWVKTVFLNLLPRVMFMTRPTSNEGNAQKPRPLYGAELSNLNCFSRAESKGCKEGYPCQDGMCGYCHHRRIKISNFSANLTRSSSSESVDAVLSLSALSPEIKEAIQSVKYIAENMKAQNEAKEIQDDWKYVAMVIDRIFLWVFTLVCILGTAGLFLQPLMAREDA
# T8 sequence (P30926 22-498): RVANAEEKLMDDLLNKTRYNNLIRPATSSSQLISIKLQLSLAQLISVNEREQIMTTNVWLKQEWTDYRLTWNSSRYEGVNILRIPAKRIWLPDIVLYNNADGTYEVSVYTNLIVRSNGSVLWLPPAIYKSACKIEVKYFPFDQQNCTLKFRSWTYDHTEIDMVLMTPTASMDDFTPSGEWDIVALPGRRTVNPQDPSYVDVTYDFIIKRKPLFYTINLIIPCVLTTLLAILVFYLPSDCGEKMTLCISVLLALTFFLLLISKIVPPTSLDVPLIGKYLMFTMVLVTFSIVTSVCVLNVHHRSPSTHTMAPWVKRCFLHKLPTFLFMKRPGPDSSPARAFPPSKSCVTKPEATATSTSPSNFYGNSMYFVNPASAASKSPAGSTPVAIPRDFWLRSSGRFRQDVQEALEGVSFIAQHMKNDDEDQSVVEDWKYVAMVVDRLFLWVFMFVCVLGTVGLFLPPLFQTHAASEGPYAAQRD
# T3 sequence (Q9Y5N1 whole entry): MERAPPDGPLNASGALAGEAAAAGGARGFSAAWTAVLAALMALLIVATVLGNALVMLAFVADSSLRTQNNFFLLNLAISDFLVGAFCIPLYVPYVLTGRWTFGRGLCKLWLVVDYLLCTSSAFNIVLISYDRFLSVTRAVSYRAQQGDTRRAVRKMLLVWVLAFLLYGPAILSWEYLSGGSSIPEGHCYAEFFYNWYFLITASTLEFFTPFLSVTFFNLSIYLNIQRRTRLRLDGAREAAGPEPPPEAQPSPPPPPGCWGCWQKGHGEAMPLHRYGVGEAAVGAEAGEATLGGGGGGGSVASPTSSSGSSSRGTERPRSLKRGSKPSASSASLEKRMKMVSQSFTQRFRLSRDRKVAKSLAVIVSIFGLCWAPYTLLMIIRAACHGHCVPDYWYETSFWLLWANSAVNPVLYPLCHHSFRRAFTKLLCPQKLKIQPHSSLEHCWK
# T7 sequence (P25021 whole entry): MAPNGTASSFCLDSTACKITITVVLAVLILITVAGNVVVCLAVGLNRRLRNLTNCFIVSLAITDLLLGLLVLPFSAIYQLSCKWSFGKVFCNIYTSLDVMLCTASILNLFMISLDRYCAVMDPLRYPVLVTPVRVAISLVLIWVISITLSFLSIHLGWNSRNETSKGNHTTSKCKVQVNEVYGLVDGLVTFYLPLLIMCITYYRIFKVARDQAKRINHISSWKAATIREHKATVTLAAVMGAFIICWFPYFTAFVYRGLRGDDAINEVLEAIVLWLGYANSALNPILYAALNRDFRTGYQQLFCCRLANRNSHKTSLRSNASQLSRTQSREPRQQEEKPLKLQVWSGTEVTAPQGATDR
# T5 sequence (P04150 whole entry): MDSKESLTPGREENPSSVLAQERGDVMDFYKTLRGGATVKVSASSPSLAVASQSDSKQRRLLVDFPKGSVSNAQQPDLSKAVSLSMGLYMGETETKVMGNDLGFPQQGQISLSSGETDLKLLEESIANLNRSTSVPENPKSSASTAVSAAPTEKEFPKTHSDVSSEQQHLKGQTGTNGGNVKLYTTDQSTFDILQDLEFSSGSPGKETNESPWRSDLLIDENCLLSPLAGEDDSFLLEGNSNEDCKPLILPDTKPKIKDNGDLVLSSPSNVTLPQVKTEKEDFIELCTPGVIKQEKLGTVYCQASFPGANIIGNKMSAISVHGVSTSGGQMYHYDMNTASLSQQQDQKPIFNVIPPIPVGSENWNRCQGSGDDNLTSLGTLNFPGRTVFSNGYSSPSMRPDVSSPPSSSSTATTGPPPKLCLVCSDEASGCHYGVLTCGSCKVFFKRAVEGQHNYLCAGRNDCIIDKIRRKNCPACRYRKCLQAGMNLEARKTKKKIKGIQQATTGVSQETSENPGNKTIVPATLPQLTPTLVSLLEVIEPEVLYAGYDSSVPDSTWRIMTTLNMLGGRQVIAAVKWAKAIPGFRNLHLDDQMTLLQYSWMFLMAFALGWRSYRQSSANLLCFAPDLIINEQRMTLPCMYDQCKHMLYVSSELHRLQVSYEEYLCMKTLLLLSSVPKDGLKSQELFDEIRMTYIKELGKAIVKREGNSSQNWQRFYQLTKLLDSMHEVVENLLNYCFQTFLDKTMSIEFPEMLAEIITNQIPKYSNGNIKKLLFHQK
# T1 sequence (P30542 whole entry): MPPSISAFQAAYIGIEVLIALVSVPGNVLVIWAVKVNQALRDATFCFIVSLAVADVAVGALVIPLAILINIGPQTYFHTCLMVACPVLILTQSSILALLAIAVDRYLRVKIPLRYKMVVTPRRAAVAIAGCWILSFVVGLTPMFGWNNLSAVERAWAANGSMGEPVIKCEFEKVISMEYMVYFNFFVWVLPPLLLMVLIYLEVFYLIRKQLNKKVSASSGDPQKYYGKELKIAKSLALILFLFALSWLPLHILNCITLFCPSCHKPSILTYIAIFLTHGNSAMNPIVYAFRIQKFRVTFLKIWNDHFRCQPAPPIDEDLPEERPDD
# T9 sequence (P49146 whole entry): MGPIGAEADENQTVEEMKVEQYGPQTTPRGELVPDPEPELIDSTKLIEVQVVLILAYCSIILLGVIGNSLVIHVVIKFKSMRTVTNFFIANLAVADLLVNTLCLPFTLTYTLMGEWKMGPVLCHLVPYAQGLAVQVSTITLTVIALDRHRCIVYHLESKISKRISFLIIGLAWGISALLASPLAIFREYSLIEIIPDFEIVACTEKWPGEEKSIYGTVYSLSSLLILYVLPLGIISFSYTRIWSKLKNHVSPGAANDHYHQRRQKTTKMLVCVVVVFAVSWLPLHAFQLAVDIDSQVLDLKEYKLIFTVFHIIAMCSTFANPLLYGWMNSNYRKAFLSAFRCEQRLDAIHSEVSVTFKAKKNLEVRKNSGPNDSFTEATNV
compound,measurement,setting,value
"COc1cc(C(F)(F)F)c(OC)cc1[C@@H]1CCCNC1 [(S)-11, 3-(2,5-Dimethoxy-4-(trifluoromethyl)phenyl)piperidine Hydrochloride]",IC50,[1]; [21],> 10 µM
same,inhibition at 10 µM,[1]; [22],4%
same,IC50,[2]; [21],1 to 10 µM
same,inhibition at 0.1 µM,[2]; [22],9%
same,inhibition at 1 µM,[2]; [22],38%
same,inhibition at 10 µM,[2]; [22],80%
same,IC50,[3]; [21],> 10 µM
same,inhibition at 10 µM,[3]; [22],11%
same,inhibition at 10 µM,[4],26%
same,IC50,[5]; [21],> 10 µM
same,inhibition at 10 µM,[5]; [22],11%
same,inhibition at 10 µM,[6],30%
same,IC50,[7]; [21],> 10 µM
same,inhibition at 10 µM,[7]; [22],10%
same,IC50,[8],~10 µM
same,inhibition at 10 µM,[8]; [22],51%
same,agonist activity at 5-HT2CR (in words),[9],negligible agonist efficacy; also recorded: absence of measurable agonist efficacy
same,EC50,"[9]; 5-HT2CR EC50 (nM), Table 1, at least 3 independent experiments",> 50000 nM
same,agonist activity at 5-HT2CR (in words),[9]; listed as 11eu,did not elicit measurable agonist activity
same,IC50,[10]; [21],> 10 µM
same,inhibition at 10 µM,[10]; [22],3%
same,recovery at […],[11]; read-out: Mean Recovery A to B,70%
same,recovery at […],[11]; read-out: Mean Recovery B to A,92%
same,Papp A→B at […],[12],18.4 ×10⁻⁶ cm/s
same,Papp B→A at […],[12],17.3 ×10⁻⁶ cm/s
same,"Papp A→B at […], 2 µM",[12]; Figure 6,18.6 ×10⁻⁶ cm/s
same,"Papp B→A at […], 2 µM",[12]; Figure 6,17.3 ×10⁻⁶ cm/s
same,inhibition at 10 µM,[13],6%
same,% inhibition of the specific radioligand binding,"[14]; (S)-11 10 μM, n=1",2%
same,IC50,[14]; [21],> 10 µM
same,inhibition at 10 µM,[15],-6%
same,IC50,[16]; [21],1 to 10 µM
same,inhibition at 1 µM,[16]; [22],21%
same,inhibition at 10 µM,[16]; [22],68%
same,IC50,[17]; [21],> 10 µM
same,inhibition at 10 µM,[17]; [22],38%
same,IC50,[18]; [21],> 10 µM
same,inhibition at 10 µM,[18]; [22],-7%
same,IC50,[19]; [21],> 10 µM
same,inhibition at 10 µM,[19]; [22],9%
same,logP at 1 h,[20]; main text and Figure 6,3.45
same,logD,"[20]; pH 1.8, read-out: Log D (pH 1.8)",-0.815
same,logD,"[20]; pH 2.5, read-out: log D (pH2.5)",-0.536
same,logD,"[20]; pH 4.5, read-out: log D (pH4.5)",-0.376
same,logD,"[20]; pH 7.4, read-out: log D (pH7.4)",0.659
same,logD,"[20]; pH 9.5, read-out: log D (pH9.5)",1.99
same,logD,"[20]; pH 11.0, read-out: log D (pH11.0)",3.4
same,logD,"[20]; pH 12.0, read-out: log D (pH12.0)",3.5
